Experimental data published in patent US4087417A, “Hexapeptides and methods for their production” (Parke, Davis & Company, priority 1976, dated 1978).

Test system: LRF (luteinizing hormone release factor) induced luteinizing hormone (LH) release
Assay: In vitro LRF antagonist test in rat anterior pituitary cell cultures
Type: cell-based
Excerpt: Hexapeptides of this invention were screened for LRF antagonist activity in vitro using rat anterior pituitary cell cultures as described by Vale et. al. [Endocrinology, 91, 562 (1972)]. The inhibition of LRF (luteinizing hormone release factor) induced luteinizing hormone (LH) release into the culture medium is the endpoint of this in vitro bioassay.

[1] = compound 1×10^-7 molar, run with LRF Control 3.5×10^-10 molar
[2] = compound 2×10^-7 molar, run with LRF Control 3.5×10^-10 molar
[3] = compound 3.5×10^-7 molar, run with LRF Control 3.5×10^-10 molar
[4] = compound 6×10^-7 molar, run with LRF Control 3.5×10^-10 molar
[5] = compound 6×10^-8 molar, run with LRF Control 3.5×10^-10 molar
[6] = compound 1×10^-6 molar, run with LRF Control 2.5×10^-10 molar

## LRF Control: luteinizing hormone releasing factor, also referred to as luteinizing hormone releasing hormone, LH-RH; stimulates secretion of luteinizing hormone (QHWSYGLRPG; Gonadoliberin-1; UniProt P01148 24-33, looked up) [reference compound]
LRF alone 2.5×10^-10 molar (first run)
  LH Value: 38.98 ng/mL
LRF alone 3.5×10^-10 molar (second run)
  LH Value: 41.70 ng/mL

## N^α -t-Butoxycarbonyl-L-tryptophyl-N^im -benzyl-L-histidyl-O-benzyl-L-seryl-O-benzyl-L-tyrosyl-L-prolyl-D-alanine N-ethylamide
[1]
  % LH Release Inhibition: 49%
  LH Value: 27.52 ng/mL
[2]
  % LH Release Inhibition: 93%
  LH Value: 14.63 ng/mL
[3]
  % LH Release Inhibition: 104%
  LH Value: 11.46 ng/mL
[4]
  % LH Release Inhibition: 106%
  LH Value: 10.90 ng/mL
[5]
  % LH Release Inhibition: 11%
  LH Value: 38.53 ng/mL

## N^α -t-Butoxycarbonyl-L-tryptophyl-N^im -benzyl-L-histidyl-O-benzyl-L-seryl-O-benzyl-L-tyrosyl-L-prolyl-D-alanine methyl ester
[6]
  % LH Release Inhibition: 85%
  LH Value: 11.04 ng/mL
